According to the SangsterLogP compilation:

Columns and labels:
[1] = method code SF-HPLC, from DOI: 10.1021/jm100498u, PMID: 20704351; conditions: pH 7.4
[2] = method code SF-AS, from DOI: 10.1016/0378-5173(82)90004-7; conditions: pH 3.0
[3] = method code SF-AS, from DOI: 10.1002/ddr.430140205; conditions: pH 7.4
[4] = method code SF-AS, from DOI: 10.1007/bf02922495
[5] = not given; remark: listed apart in the source
[6] = not given; remark: listed apart in the source
[7] = method code SF-AS, from DOI: 10.1002/1521-3838(200111)20:4<291::aid-qsar291>3.0.co;2-q
[8] = method code SF-GLC, from DOI: 10.1016/s0021-9673(01)83612-8; conditions: pH 13.0
[9] = not given; remark: listed apart in the source
[10] = not given; remark: listed apart in the source
[11] = not given; remark: listed apart in the source
[12] = method code SF, from DOI: 10.1111/j.2042-7158.1971.tb08772.x, PMID: 4401532; conditions: pH 7.2
[13] = method code SF, from DOI: 10.1021/jm00378a018, PMID: 6389865; conditions: pH 7.0
[14] = method code SF-AS, from DOI: 10.1080/00021369.1974.10861343
[15] = not given; remark: listed apart in the source
[16] = not given; remark: listed apart in the source
[17] = method code SF-AS, from DOI: 10.1016/0223-5234(93)90135-2; conditions: pH 12.2
[18] = method code SF, from DOI: 10.1038/bjc.1982.190, PMID: 7150475; conditions: pH 7.4
[19] = method code SF-CR+AS, from DOI: 10.1016/s0003-2670(00)84151-3
[20] = method code SF, from DOI: 10.1002/em.2850190108, PMID: 1732104
[21] = method code SF-AS, from DOI: 10.1021/jf950378u
[22] = method code SF-AS, from DOI: 10.1002/jps.2600741028, PMID: 4078715
[23] = method code SF-AS, from DOI: 10.1111/j.1476-5381.1975.tb07619.x, PMID: 1182339; conditions: pH 10.0
[24] = not given; remark: listed apart in the source
[25] = method code SF-HPLC, from DOI: 10.1016/0378-5173(82)90005-9; conditions: pH 3.0

With `Clc1ccc2c(ccc3ccccc32)c1` the logP was 5.16.
With `C[C@H](c1ccccc1)n1cncc1C(=O)OCc1ccc(C(=O)c2ccccc2)cc1` the logD [1] was 4.4.
Molecule `CC1(c2ccccc2)C(=O)NC(=O)NC1=O` has a logD [2] of 0.91.
With `O=C1CCC(c2ccncc2)=NN1` the logD [3] was 0.18.
`N#CC(C#N)=Cc1ccco1` showed a logP [4] of 1.5.
Molecule `COc1ccc(CC2CNC(=O)C2)cc1OC` (stereo not drawn) has a logD [3] of 0.58.
In the case of `ClC(Cl)=C(Cl)c1c(Cl)c(Cl)c(Cl)c(Cl)c1Cl`, the logP is reported as 6.29.
With `COC(=O)CS(=O)(=O)c1ccccc1[N+](=O)[O-]` the logP [5] was 0.95.
With `COc1ccc(C)cc1N` the logP [6] was 1.74.
With `Cc1ccc(-c2n[nH]c(=S)o2)cc1` the logP [7] was 3.44.
Work on `CC(N)CC1CCCCC1` (stereo not drawn) yielded a logD [8] of 2.96.
In the case of `COP(=S)(OC)Oc1nc(Cl)c(Cl)cc1Cl`, the logP [9] is reported as 3.99.
With `COc1cccc(Cl)c1` the logP [10] was 2.98.
Work on `CCCC(O)CC` (stereo not drawn) yielded a logP [11] of 1.65.
`CC1Cc2ccccc2CN1` (stereo not drawn) showed a logD [8] of 1.93.
With `CC(=O)Nc1ccc([N+](=O)[O-])cc1` the logD [12] was 1.66.
`CC(=O)Nc1ccc(I)cc1` gave a logD [12] of 2.46.
For `COC(=O)c1nc(NCC(O)CO)cnc1[N+](=O)[O-]` (stereo not drawn), the logD [13] was -0.1.
For `COC(=O)C=COc1ccccc1Cl`, the logP [14] was 3.02.
Work on `Nc1ccc(Sc2ccccc2)cc1` yielded a logP [6] of 2.18.
In the case of `S=c1[nH]nc(-c2ccc(Cl)cc2)o1`, the logP [7] is reported as 3.66.
`C[C@H](c1ccccc1)n1cncc1C(=O)OCCC1(C)N=N1` showed a logD [1] of 3.6.
For `Cc1cccc(O)c1C`, the logP [15] was 2.48.
Work on `O=[N+]([O-])c1nccnc1NCC(O)CO` (stereo not drawn) yielded a logD [13] of -0.49.
In the case of `COC(=O)/C=C/Oc1ccccc1`, the logP [14] is reported as 2.68.
`CCCCCCCCCCCCN1CC(C(=O)OC)CC1=O` (stereo not drawn) showed a logP [16] of 4.
Work on `CNCCc1ccccn1` yielded a logD [17] of 0.68.
`CC(C)OC(=O)CS(=O)(=O)c1ccc([N+](=O)[O-])cc1[N+](=O)[O-]` gave a logP [5] of 2.01.
Molecule `O=C1CN(/N=C/c2ccc([N+](=O)[O-])o2)C(=O)N1` has a logD [18] of -0.19.
For `CC(=O)Nc1ccc(C)cc1`, the logD [12] was 1.4.
Molecule `NCCc1cn2ccccc2n1` has a logD [17] of 0.59.
`NC(=S)c1ccc(Cl)cc1` gave a logP [19] of 2.4.
Work on `NC(=S)c1ccc([N+](=O)[O-])cc1` yielded a logP [19] of 1.75.
`O=C1Nc2ccc([N+](=O)[O-])cc2C1=O` showed a logP [20] of 0.47.
Molecule `Cc1ccc(Cl)cc1O` has a logP [10] of 2.63.
`CCOC(=O)C=COc1ccccc1Cl` gave a logP [14] of 3.55.
For `CC(C)(C)c1cccc(O)c1`, the logP [15] was 3.05.
Molecule `Nc1nc(NCCO)c(Cl)nc1[N+](=O)[O-]` has a logD [13] of 0.12.
In the case of `O=[N+]([O-])c1nccn1CC(O)CCN1CCOCC1` (stereo not drawn), the logD [18] is reported as -0.53.
With `CSc1ccc(C(=O)c2[nH]c(=O)[nH]c2C)cc1` the logD [3] was 1.55.
With `CCN(CC)c1nc(C)cc(OP(=S)(OC)OC)n1` the logP [9] was 3.8.
Molecule `COc1ccc([C@@H]2CC(=O)c3c(O)cc(O[C@@H]4O[C@H](CO[C@@H]5O[C@@H](C)[C@H](O)[C@@H](O)[C@H]5O)[C@@H](O)[C@H](O)[C@H]4O)cc3O2)cc1O` has a logP [21] of 0.32.
For `O=C(O)/C=C/Oc1ccc(Cl)cc1Cl`, the logD ([14]; pH 3.0) was 3.46.
Work on `[O-][N+](=Cc1ccccc1)c1ccccc1` yielded a logP [22] of 1.88.
Work on `O=[N+]([O-])c1cnc(NC(CO)C(O)CO)cn1` (stereo not drawn) yielded a logD [13] of -0.89.
For `CN(C)C(=O)Nc1ccccc1`, the logP [9] was 1.18.
`N#Cc1ccc(NC(=O)NC(=N)N)cc1Cl` gave a logD [23] of 1.9.
For `CSc1nc(NC2CC2)nc(NC(C)(C)C)n1`, the logP [24] was 3.38.
Molecule `CCCCCCC(C)O` (stereo not drawn) has a logP [11] of 2.9.
With `N#CC(C#N)=Cc1ccc(Cl)o1` the logP [4] was 2.17.
In the case of `COC(=O)CSc1ccc([N+](=O)[O-])cc1[N+](=O)[O-]`, the logP [5] is reported as 2.03.
`Cc1cc(NC(=O)NC(=N)N)ccc1Cl` gave a logD [23] of 2.19.
Molecule `N=C(N)NC(=O)Nc1ccc(Cl)cc1` has a logD [23] of 1.78.
Work on `CCOC(=O)CC(SP(=S)(OC)OC)C(=O)OCC` (stereo not drawn) yielded a logP [9] of 2.18.
With `COc1ccc(C(N)=S)cc1` the logP [19] was 1.63.
With `O=C1CCC(c2ccc(-n3ccnc3)cc2)=NN1` the logD [3] was 1.
Work on `CNC1CCc2ccccc2C1` (stereo not drawn) yielded a logD [8] of 2.38.
Work on `O=C1NC(=O)C2(CCCCC2)C(=O)N1` yielded a logD [25] of 0.91.
Molecule `CN(C)CCc1ccccn1` has a logD [17] of 1.12.
In the case of `O=C1NC(=O)C(c2ccccc2)(c2ccccc2)C(=O)N1`, the logD [2] is reported as 1.96.
`Oc1cc(O)c2c(c1)O[C@H](c1ccc(O)c(O)c1)[C@@H](O)C2` showed a logP [21] of 1.31.
`S=c1[nH]nc(-c2ccccc2Cl)o1` showed a logP [7] of 3.36.
With `O=c1ccc2ccc(O)c(O)c2o1` the logP [21] was 0.71.
Work on `CCCCCCN1CC(C(=O)O)CC1=O` (stereo not drawn) yielded a logP [16] of 1.6.
With `COC(=O)C(C#N)=Cc1ccc(Cl)o1` the logP [4] was 2.4.
In the case of `CC1CCCC(C)C1O` (stereo not drawn), the logP [11] is reported as 2.37.
`CCCCCC1(CCO)N=N1` showed a logD [1] of 2.55.
Molecule `COC(=O)CS(=O)c1ccc([N+](=O)[O-])cc1Cl` (stereo not drawn) has a logP [5] of 1.69.
In the case of `Oc1ccccc1-c1n[nH]c(=S)o1`, the logP [7] is reported as 2.42.
Molecule `C[C@@H]1CCCC[C@H]1O` has a logP [11] of 1.82.
Work on `O=C1NC(=O)C2(CC2)C(=O)N1` yielded a logD [25] of -0.53.
For `COc1ccc(OC)cc1`, the logP [10] was 2.03.
With `CCC1(C)C(=O)NC(=O)NC1=O` the logD [2] was 0.08.
Molecule `CC(C)c1ccc(C=[N+]([O-])c2ccccc2)cc1` has a logP [22] of 3.37.
Work on `O=C(O)/C=C/c1ccccc1O` yielded a logP [21] of 0.62.
`CCC(C)c1ccc(O)cc1` (stereo not drawn) showed a logP [15] of 3.32.
Molecule `Cc1cccc(C)c1C#[N+][O-]` has a logP [22] of 2.74.
Work on `CC(=O)Nc1ccc(C=O)cc1` yielded a logD [12] of 1.25.
`CCCCCCN1CCCC1=O` gave a logP [16] of 2.6.
`COc1ccc(N)c([N+](=O)[O-])c1` gave a logP [10] of 1.86.
`Cc1cc(O)cc(C)c1Cl` gave a logP [15] of 3.27.
Work on `N=C(N)NC(=O)Nc1ccc([N+](=O)[O-])c(Cl)c1` yielded a logD [23] of 1.79.
In the case of `COc1c(Br)cc(Br)cc1Br`, the logP is reported as 4.48.
`CSc1nc(NCCC=O)nc(NC(C)(C)C)n1` gave a logP [24] of 2.92.
With `Cn1cnc([N+](=O)[O-])c1S(=O)(=O)Oc1ccccc1` the logD [18] was 1.08.
Work on `Cc1ccc(C=[N+]([O-])c2ccccc2)cc1` yielded a logP [22] of 2.41.
With `CSc1nc(NC(C)(C)C)nc(NC(C)(C)C)n1` the logP [24] was 4.39.
Work on `C[C@H](c1ccccc1)n1cncc1C(=O)OCc1ccc(C2(C(F)(F)F)N=N2)cc1` yielded a logD [1] of 4.3.
In the case of `CCCCCC(C)N` (stereo not drawn), the logD [8] is reported as 2.4.
`Nc1ccc(Cl)cc1N` gave a logP [6] of 1.28.
In the case of `O=[N+]([O-])c1ccc2c3c(cccc13)CC2`, the logP [20] is reported as 3.85.
`O=C1NC(=O)C2(CCCCCCCCCC2)C(=O)N1` gave a logD [25] of 3.15.
`NC(=O)c1cc(N2CC2)c([N+](=O)[O-])cc1[N+](=O)[O-]` gave a logD [18] of 0.2.
`CSc1nc(N)nc(NC(C)(C)C)n1` gave a logP [24] of 2.54.
`NCCc1nc(-c2ccccc2)cs1` showed a logD [17] of 2.22.
Work on `CN1CC(C(=O)O)CC1=O` (stereo not drawn) yielded a logP [16] of -1.5.
Molecule `Nc1cccc2cccnc12` has a logP [6] of 1.79.
`Cc1ccc(C(N)=S)cc1` showed a logP [19] of 2.01.
`CCNc1nc(Cl)nc(NC(C)C)n1` showed a logP of 2.63.
For `Cc1ccc2cccc([N+](=O)[O-])c2n1`, the logP [20] was 1.99.
With `C=CCC1(C)C(=O)NC(=O)NC1=O` the logD [2] was 0.36.
In the case of `COC(=O)/C(C#N)=C/c1ccco1`, the logP [4] is reported as 1.75.
`O=[N+]([O-])c1cc([N+](=O)[O-])c2ccccc2c1` showed a logP [20] of 2.83.
